Assay results from paper PMC3463587, “A Series of Beta-Carboline Derivatives Inhibit the Kinase Activity of PLKs” (PLoS ONE, 2012).

Tests used:
HeLa cells [1] = assay: MTT cell proliferation assay, HeLa; assay type: cell-based; settings: Homo sapiens, 48 hr
Source text: BI2536 was purchased from Selleck (Selleck, USA).

PLK2 = PLK2 (Homo sapiens, UniProt Q9NYY3); assay: In vitro kinase assay PLK2; assay type: biochemical
Procedure: The inhibition of PLK1 kinase activity was assessed using the Cyclex PLK1 Assay/Inhibitor Screening Kit (MBL International Corporation, Japan). The kit includes anti-phospho-threonine polyclonal antibody (PPT-07) and peroxidase coupled anti-rabbit IgG antibody as a reporter in a 96-well ELSIA format. Compounds were used at the concentrations from 10^− ^3 to 10^2 µg/ml and the absorbance was determined at 450 nm. A similar protocol was used to determine the kinase inhibition for PLK2, PLK3, Aurora A and Aurora B. The kinase activity of CDK1/cyclinB and CDK2/cyclinE was analyzed in the presence of serially diluted inhibitors. For each reaction, 20 ng of recombinant kinase was used and […] casein from bovine milk (Sigma) was added as the kinase substrate. The kinase reaction buffer contains 8 mM MOPS pH7.0, 0.2 mM EDTA, 0.1 mg/ml histone H1, 10 mM and MgAcetace and [γ^− ^33P-ATP] (500 cpm/pmol). The reaction was initiated by adding the MgATP mix. After incubation for 40 minutes at room temperature, the reaction was stopped by the addition of 3% phosphoric acid solution. We spotted 10 µl of the reaction mixture onto a P30 filtermat and washed three times for 5 min with 75 mM phosphoric acid and once with methanol prior to drying and scintillation counting.

HeLa cells [2] = assay: FACS cell cycle analysis (PI), HeLa; assay type: cell-based, human
Procedure: It is well documented that PLK1 is involved in multiple steps in mitosis, such as centrosome maturation and establishment of bipolar spindle. […] Therefore, the down-regulation of PLK1 would change the distribution of cells in different cell cycle stages. To test this possibility, fluorescence-activated cell sorter (FACS) analysis was used to analyze the DNA content of HeLa cells treated with the identified PLK1 inhibitors, DH281, DH285, and DH287. HeLa cells were first incubated in the absence and presence of these compounds at different concentrations (0, 0.12, 0.48 and 1.92 µM) for 48 hr. […] Treatment with a lower concentration of the compounds (0.12 and 0.48 µM) also led to an obvious increase of the cell population in G2/M phase (Figure 4A, Table 3). Moreover, the proportion of HeLa cells in G2/M phase increased over time after incubation in the presence of 0.8 µM of DH281, DH285 and DH287 (Figure 4B, Table 4). […] We also determined the cell cycle distribution of the non-cancer MRC5 cells after treatment with DH281 at different concentrations. […] It is also possible that inhibition of the kinase activity of the whole PLK family by beta-carboline compounds results in the defect in cell cycle progression.
[…] The floated and attached cells were treated by trypsinization and washed with cold PBS. The cells were then fixed with 70% (v/v) ethanol at 4°C overnight. The fixed cells were washed twice with PBS and incubated with 50 µg/mL RNase A (Sigma, USA) and 50 µg/mL propidium iodide (PI) (Sigma, USA) at 37°C for 30 min.

HeLa cells [3] = assay: Immunofluorescence of spindle (anti-α-tubulin); assay type: cell-based, human; settings: 1.21 µM, 24 hr
Source text: PLK1 plays a pivotal role in centrosome maturation and spindle formation during mitosis. Thus, the down-regulation of PLK1 activity would prevent centrosome maturation as well as the formation of a bipolar spindle. Anti-α-tubulin antibody was used for immunofluorescence staining in order to examine the spindle structure in cells treated with the beta-carboline compounds.
HeLa cells were collected and then grown onto cover-slips. […] After washed with washing buffer (Beyotime, P0106) for 3 times, the cells were incubated with blocking buffer (Beyotime, P0102) for 60 min. The primary antibody anti-α-tubulin (Abcam) was used at 1∶200 dilutions; H&L (Cy5)-labeled secondary antibody was used at 1∶200 dilutions. The cover-slips were then mounted with PBS:glycerol (1∶1) mounting medium containing DAPI and examined under an inverted confocal microscope. Images were analyzed by the 3D image software Volocity (Improvision).

[4] = tested on: Wee1 protein levels in HeLa cells; assay: Wee1 protein level (Western blotting); assay type: cell-based, human; settings: 1.21 µM, 24 hr, compared to control cells
Procedure: As the inhibitory kinase for cyclin-dependent kinase (CDK), Wee1 is one of the substrates of PLK1 and this phosphorylation stimulates Wee1 degradation. We expect that the inhibition of PLK1 impairs the phosphorylation of Wee1, thereby resulting in elevated Wee1 protein levels. To test this possibility, we examined the protein levels of Wee1 in HeLa cells after treatment with 1.21 µM beta-carboline compounds for 24 hr. […] PLK1 also phosphorylates cyclin B1 and this phosphorylation promotes the nuclear localization of cyclin B1 [36]. After treatment with these beta-carboline compounds, a slight increase of cyclin B1 protein was observed (Figure 6B), and this increase could be a consequence of accumulation of cells in G2/M phase. However, the change of cyclin B1 levels is much less significant compared to the increase of Wee1 levels after treatment with these compounds.
HeLa cells were incubated with or without 1.21 µM DH281, DH285 and DH287 for 24 hr. The cells were washed twice with cold 1×PBS and lysed in RAPI buffer (Applygen technologies Inc.) for 30 min and centrifuged at 14,000 rpm for 20 min at 4°C. We separated 15 µl of total protein (1 µg/ µl) with 12% SDS-PAGE gels and transferred the proteins to PVDF membrane. […] The protein bands were detected using ECL System (Piscataway, New Jersey, USA). […]

[5] = tested on: four cancer cell lines (HepG2, MG63, HeLa and PC3); assay: Growth inhibition of four cancer cell lines; assay type: cell-based, Human
Source text: In order to find more efficient antitumor small molecules targeting PLK1, we synthesized additional 18 beta-carboline compounds and the structures of these compounds are shown in Figure 1. The growth inhibition of four cancer cell lines (HepG2, MG63, HeLa and PC3) by these compounds was examined. […] We selected DH281, DH285 and DH287 for further studies.

Sequence of PLK2 (Q9NYY3 whole entry, species assumed): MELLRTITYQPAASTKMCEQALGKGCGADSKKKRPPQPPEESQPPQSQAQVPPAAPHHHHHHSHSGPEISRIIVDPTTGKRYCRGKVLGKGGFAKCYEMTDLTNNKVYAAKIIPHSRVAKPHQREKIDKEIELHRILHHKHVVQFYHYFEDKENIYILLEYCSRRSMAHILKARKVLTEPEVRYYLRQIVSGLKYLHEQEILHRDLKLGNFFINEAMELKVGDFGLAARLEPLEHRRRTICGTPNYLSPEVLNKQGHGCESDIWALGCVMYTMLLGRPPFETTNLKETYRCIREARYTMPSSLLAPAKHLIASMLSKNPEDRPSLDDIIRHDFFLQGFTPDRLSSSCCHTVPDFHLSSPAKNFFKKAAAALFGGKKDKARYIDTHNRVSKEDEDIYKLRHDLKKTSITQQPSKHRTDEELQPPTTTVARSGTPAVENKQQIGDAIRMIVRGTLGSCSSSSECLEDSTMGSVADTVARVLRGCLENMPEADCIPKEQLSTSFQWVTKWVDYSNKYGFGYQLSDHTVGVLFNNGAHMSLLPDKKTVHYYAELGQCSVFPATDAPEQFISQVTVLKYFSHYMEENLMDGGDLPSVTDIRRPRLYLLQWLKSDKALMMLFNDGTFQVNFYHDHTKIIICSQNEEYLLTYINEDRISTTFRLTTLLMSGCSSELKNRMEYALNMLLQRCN

Row | SMILES | IC50 (HeLa cells [1]) | IC50 (PLK2) | cells in G1 (HeLa cells [2]; 0.12 µM, 48 hr) | cells in G2 (G2/M) (HeLa cells [2]; 0.12 µM, 48 hr) | cells in S (HeLa cells [2]; 0.12 µM, 48 hr) | cells in G1 (HeLa cells [2]; 0.48 µM, 48 hr) | cells in G2 (G2/M) (HeLa cells [2]; 0.48 µM, 48 hr) | cells in S (HeLa cells [2]; 0.48 µM, 48 hr) | cells in G1 (HeLa cells [2]; 0.8 µM, 24 hr) | cells in G2 (G2/M) (HeLa cells [2]; 0.8 µM, 24 hr) | cells in S (HeLa cells [2]; 0.8 µM, 24 hr) | cells in G1 (HeLa cells [2]; 0.8 µM, 36 hr) | cells in G2 (G2/M) (HeLa cells [2]; 0.8 µM, 36 hr) | cells in S (HeLa cells [2]; 0.8 µM, 36 hr) | cells in G1 (HeLa cells [2]; 0.8 µM, 48 hr) | cells in G2 (G2/M) (HeLa cells [2]; 0.8 µM, 48 hr) | cells in S (HeLa cells [2]; 0.8 µM, 48 hr) | cells in G1 (HeLa cells [2]; 0.8 µM, 60 hr) | cells in G2 (G2/M) (HeLa cells [2]; 0.8 µM, 60 hr) | cells in S (HeLa cells [2]; 0.8 µM, 60 hr) | other results
1 | Cc1c2c(cc[n+]1Cc1ccccc1)c1ccc(OCc3ccc(F)cc3)cc1n2CCCc1ccccc1 [DH281] | 510 ± 80 nM | 3820 nM | 70.5% | 10.1% | 19.4% | 55.3% | 14.4% | 30.3% | 64.1% | 10.2% | 25.7% | 53.4% | 18.9% | 27.7% | 42.4% | 16.6% | 41.1% | 33.9% | 14.6% | 51.6% | cells in G1 (HeLa cells [2]; 1.92 µM, 48 hr): 38.4%; cells in G2 (G2/M) (HeLa cells [2]; 1.92 µM, 48 hr): 26.7%; cells in S (HeLa cells [2]; 1.92 µM, 48 hr): 34.9%; spindle structure (HeLa cells [3]): induced formation of monopolar spindles; Wee1 protein level [4]: high levels of Wee1 protein; antitumor activity (growth inhibition) [5]: very strong growth inhibition
2 | Cc1c2c(cc[n+]1Cc1ccccc1)c1ccc(OCc3ccccc3)cc1n2Cc1ccccc1 [DH287] | 1820 ± 150 nM | 4300 nM | 77.3% | 6.86% | 15.9% | 64.8% | 14.2% | 21.0% | 64.5% | 10.2% | 25.3% | 54.6% | 15.9% | 29.5% | 49.3% | 13.0% | 37.8% | 30.6% | 16.6% | 52.8% | cells in G1 (HeLa cells [2]; 1.92 µM, 48 hr): 51.9%; cells in G2 (G2/M) (HeLa cells [2]; 1.92 µM, 48 hr): 21.0%; spindle structure (HeLa cells [3]): induced formation of monopolar spindles; Wee1 protein level [4]: high levels of Wee1 protein; antitumor activity (growth inhibition) [5]: very strong growth inhibition
